Measured values published in US20210244735A1, “COMPOSITIONS AND METHODS FOR TREATING MYELOFIBROSIS” (Impact Biomedicines, Inc., priority 2010, published 2021).
“Also recorded” adds a separate entry of the source. Structures can show the parent of a compound that is named as a salt.

Tests used:
subjects with MF = assay: Phase 1 dose-escalation study MF-TG101348-001 (and extension MF-TG101348-002): clinical response (spleen, leukocytosis, thrombocytosis, constitutional symptoms, bone marrow); assay type: in vivo, human; details: for subjects achieving a normal WBC count: following 6 cycles; for subjects achieving a normal platelet count: after 6 cycles; for subjects with minimum 25% decrease in palpable spleen size: intent-to-treat
Experimental: The key eligibility criteria for subjects included: Myelofibrosis (PMF or post-PV/ET MF); High-risk or intermediate-risk with symptomatic splenomegaly/unresponsive to available therapy; ECOG performance status ≤2; ANC≥1×10^9/L; Platelet count≥50×10^9/L; Serum creatinine ≤2 mg/dL; Total bilirubin ≤2 mg/dL; AST/ALT≤3X upper limit of normal.
All patients provided written informed consent.
Responses were measured every 4 weeks per International Working Group for MPN Research and Treatment (IWG-MRT) criteria (Tefferi A et al., Blood 108:1497-1503, 2006). Assessment of bone marrow histology was performed at baseline and every 24 weeks of therapy. Changes in JAK2V 617F allele burden in the granulocyte fraction of peripheral blood were measured as previously described (Kittur J et al., Cancer 109:2279-2284, 2007); the assessments were at baseline and every 4 weeks during the first 6 cycles, and every 6th cycle of therapy in the extension study.

[1] = Drug substance blend compatibility with fillers and lubricants; assay type: physicochemical; details: blends with lactose, mannitol, MCC Avicel PH102, MCC ProSolv 90 HD; magnesium stearate, Pruv; 60° C./ambient humidity
Experimental: A matrix of formulation blends was designed to study the compatibility of TG101348 di-HCl monohydrate with four fillers and two lubricants (Table 17). Blends were prepared at a scale of 2.5 g each by prescreening all components through a 500 μm sieve, blending all components except the lubricant using aTurbula T2B blender for 10 min at 22 rpm, screening the blend through a 500 μm sieve, blending for 10 min, adding lubricant (weight adjusted) and blending for 5 min The blends were manufactured and stored in 30 mL amber HDPE bottles under primary (60° C./ambient humidity) and backup conditions (40° C./75% RH, 25° C./60% RH, and 5° C.).

human caco-2 cells = assay: caco-2 permeability; assay type: in vitro ADME; details: caco-2 permeability data
[2] = Bioavailability in multiple species; details: in vivo, oral
serum EPO and TPO = assay: Phase 1 study: serum EPO and TPO levels; assay type: in vivo, human; details: after treatment initiation (data not shown)
[3] = MTD cohort, after 1 cycle (n=12)
[4] = MTD cohort, after 1 cycle, 8 subjects at baseline
[5] = MTD cohort, after 6 cycles (n=16)
[6] = at 3 months, 33 patients who started at >680 mg and completed at least 3 cycles

Cc1cnc(Nc2ccc(OCCN3CCCC3)cc2)nc1Nc1cccc(S(=O)(=O)NC(C)(C)C)c1 [TG101348, N-tert-butyl-3-[(5-methyl-2-{[4-(2-pyrrolidin-1-ylethoxy)phenyl]amino}pyrimidin-4-yl)amino]benzenesulfonamide dihydrochloride monohydrate]
normal WBC count at last follow-up visit (subjects with MF; 21 patients with leukocytosis at baseline who started at ≥680 mg): 70% | complete response in splenomegaly (subjects with MF; Example 2 conclusions): ~30% | proportion achieving ≥50% reduction in palpable splenomegaly (subjects with MF; Example 2 conclusions): two-thirds | subjects achieving CI (subjects with MF; JAK2V617F-negative MF, 4 subjects who completed 6 cycles): 75% | night sweats: complete resolution (subjects with MF; MTD cohort, after 1 cycle): 64 % of subjects | cough: complete resolution (subjects with MF; [3]): 67% | cough: improvement (subjects with MF; [3]): 75% | pruritus: complete resolution (subjects with MF; [4]): 50% | pruritus: improvement (subjects with MF; [4]): 75% | early satiety: complete resolution (subjects with MF; MTD cohort, after 2 cycles (n=27)): 56% | night sweats: complete resolution (subjects with MF; MTD cohort, after 6 cycles (n=9)): 89% | fatigue: complete resolution (subjects with MF; [5]): 25% | fatigue: improvement (subjects with MF; [5]): 63% | subjects with disease progression (subjects with MF; all subjects): Three | reduction in palpable spleen size at least 50% (subjects with MF; [6]): 22 (67%) patients (%) | spleen became non-palpable (subjects with MF; [6]): 9 (27%) patients (%) | normal WBC counts at follow-up visit (subjects with MF; baseline WBC count >11×10^9/L, follow-up doses 360 to 680 mg/day): 73 % of subjects | subjects achieving a normal WBC count (subjects with MF; baseline leukocytosis (WBC >11×10^9/L), across doses (16 of 28)): 57% | subjects achieving a normal WBC count (subjects with MF; baseline leukocytosis, MTD cohort (13 of 18)): 72% | effect on thrombocytosis (subjects with MF; baseline platelet count >450×10^9/L): able to reduce platelet counts | subjects achieving a normal platelet count (subjects with MF; baseline thrombocytosis (platelet count >450×10^9/L), across doses (10 subjects)): 90% | subjects achieving a normal platelet count (subjects with MF; baseline thrombocytosis, MTD cohort (7 subjects)): 100% | ≥50% decrease in palpable spleen size persistent for at least 8 weeks (Clinical Improvement per IWG-MRT) (subjects with MF; by cycle 6, MTD cohort): 45 % of subjects | subjects with minimum 25% decrease in palpable spleen size (subjects with MF; by cycle 6, MTD cohort): 65% | ≥50% decrease in palpable spleen size persistent for at least 8 weeks (Clinical Improvement per IWG-MRT) (subjects with MF; by cycle 6, overall): 39 % of subjects | subjects with minimum 25% decrease in palpable spleen size (subjects with MF; by cycle 6, overall): 61% | spleen responses (CI) (subjects with MF; by cycle 12, MTD cohort): 50 % of subjects | spleen responses (CI) (subjects with MF; by cycle 12, overall): 48 % of subjects | effect on constitutional symptoms (early satiety, fatigue, cough, pruritus, night sweats) (subjects with MF; evaluable subjects, baseline versus last visit, dihydrochloride monohydrate): clinically significant benefit or resolution; also recorded: able to improve; also recorded: remarkable activity | pruritus (subjects with MF; one subject with JAK2V617F-positive PMF, started at 680 mg/day): complete resolution | bone marrow fibrosis after 18 cycles (subjects with MF; person, V617F negative PMF, baseline 3+, starting dose 240 mg/day, follow-up 440 mg/day): 0 | bone marrow cellularity after 18 cycles (subjects with MF; person, V617F negative PMF, baseline 60%, starting dose 30 mg/day, follow-up 520 mg/day): 5-10% | compatibility with fillers and lubricants: changes in attributes (appearance, assay, impurities) [1]: no incompatibilities | permeability (human caco-2 cells): on the borderline between “low” and “high” permeability | bioavailability [2]: 20 to 25% | serum EPO and to a lesser extent TPO levels relative to baseline (serum EPO and TPO): increases
